# ChEMBL document CHEMBL1275514, “Surveillance of community-based reservoirs reveals the presence of CTX-M, imported AmpC, and OXA-30 beta-lactamases in urine isolates of Klebsiella pneumoniae and Escherichia coli in a U.S. community” (2008)
# Experiments:
# Format in all cases: functional
# Escherichia coli [1] = assay: Antimicrobial activity against CTX-M-14-like, TEM-1-like beta-lactamase producing Escherichia coli isolate CUMC233 by disk diffusion method
# Escherichia coli [2] = assay: Antimicrobial activity against CTX-M-14-like, TEM-1-like beta-lactamase producing Escherichia coli isolate CUMC203 by disk diffusion method in presence of beta-lactamase inhibitor clavulanic acid
# Escherichia coli [3] = assay: Antimicrobial activity against CTX-M-14, TEM-1 beta-lactamase producing Escherichia coli isolate CUMC174 by disk diffusion method
# Escherichia coli [4] = assay: Antimicrobial activity against CTX-M-14-like, TEM-1-like beta-lactamase producing Escherichia coli isolate CUMC192 by disk diffusion method
# Escherichia coli [5] = assay: Antimicrobial activity against CMY-2 beta-lactamase producing Escherichia coli isolate CUMC181 by disk diffusion method in presence of beta-lactamase inhibitor clavulanic acid
# Escherichia coli [6] = assay: Antimicrobial activity against CMY-2 beta-lactamase producing Escherichia coli isolate CUMC190 by disk diffusion method in presence of beta-lactamase inhibitor clavulanic acid
# Klebsiella pneumoniae [7] = assay: Antimicrobial activity against SHV-12-like, SHV-1-like beta-lactamase producing Klebsiella pneumoniae isolate CUMCK9 by disk diffusion method in presence of beta-lactamase inhibitor clavulanic acid
# Escherichia coli [8] = assay: Antimicrobial activity against CMY-2 beta-lactamase producing Escherichia coli isolate CUMC243 by disk diffusion method in presence of beta-lactamase inhibitor clavulanic acid
# Escherichia coli [9] = assay: Antimicrobial activity against CTX-M-14-like, TEM-1-like beta-lactamase producing Escherichia coli isolate CUMC204 by disk diffusion method in presence of beta-lactamase inhibitor clavulanic acid
# Escherichia coli [10] = assay: Antimicrobial activity against CTX-M-14, TEM-1-like beta-lactamase producing Escherichia coli isolate CUMC180 by disk diffusion method in presence of beta-lactamase inhibitor clavulanic acid
# Escherichia coli [11] = assay: Antimicrobial activity against CTX-M-14-like, TEM-1-like beta-lactamase producing Escherichia coli isolate CUMC233 by disk diffusion method in presence of beta-lactamase inhibitor clavulanic acid
# Escherichia coli [12] = assay: Antimicrobial activity against CMY-2 beta-lactamase producing Escherichia coli isolate CUMC243 by disk diffusion method
# Escherichia coli [13] = assay: Antimicrobial activity against CMY-2 beta-lactamase producing Escherichia coli isolate CUMC201 by disk diffusion method
# Escherichia coli [14] = assay: Antimicrobial activity against CMY-2 beta-lactamase producing Escherichia coli isolate CUMC225 by disk diffusion method in presence of beta-lactamase inhibitor clavulanic acid
# Escherichia coli [15] = assay: Antimicrobial activity against CMY-2 beta-lactamase producing Escherichia coli isolate CUMC201 by disk diffusion method in presence of beta-lactamase inhibitor clavulanic acid
# Escherichia coli [16] = assay: Antimicrobial activity against CMY-2,TEM-2-like beta-lactamase producing Escherichia coli isolate CUMC224 by disk diffusion method
# Escherichia coli [17] = assay: Antimicrobial activity against CMY-2 beta-lactamase producing Escherichia coli isolate CUMC181 by disk diffusion method
# Escherichia coli [18] = assay: Antimicrobial activity against CMY-2 beta-lactamase producing Escherichia coli isolate CUMC190 by disk diffusion method
# Escherichia coli [19] = assay: Antimicrobial activity against CTX-M-14, TEM-1-like beta-lactamase producing Escherichia coli isolate CUMC244 by disk diffusion method
# Escherichia coli [20] = assay: Antimicrobial activity against CMY-2,CTX-M-14,TEM-2-like beta-lactamase producing Escherichia coli isolate CUMC215 by disk diffusion method
# Escherichia coli [21] = assay: Antimicrobial activity against CTX-M-14-like, TEM-1-like beta-lactamase producing Escherichia coli isolate CUMC203 by disk diffusion method
# Escherichia coli [22] = assay: Antimicrobial activity against CTX-M-14-like, TEM-1-like beta-lactamase producing Escherichia coli isolate CUMC192 by disk diffusion method in presence of beta-lactamase inhibitor clavulanic acid
# Escherichia coli [23] = assay: Antimicrobial activity against CTX-M-14-like, TEM-1-like beta-lactamase producing Escherichia coli isolate CUMC204 by disk diffusion method
# Escherichia coli [24] = assay: Antimicrobial activity against CTX-M-15,OXA-30 beta-lactamase producing Escherichia coli isolate CUMC245 by disk diffusion method
# Escherichia coli [25] = assay: Antimicrobial activity against CTX-M-14, TEM-1-like beta-lactamase producing Escherichia coli isolate CUMC180 by disk diffusion method
# Escherichia coli [26] = assay: Antimicrobial activity against CTX-M-14, TEM-1-like beta-lactamase producing Escherichia coli isolate CUMC244 by disk diffusion method in presence of beta-lactamase inhibitor clavulanic acid
# Escherichia coli [27] = assay: Antimicrobial activity against CMY-2 beta-lactamase producing Escherichia coli isolate CUMC214 by disk diffusion method in presence of beta-lactamase inhibitor clavulanic acid
# Escherichia coli [28] = assay: Antimicrobial activity against CTX-M-14, TEM-1-like beta-lactamase producing Escherichia coli isolate CUMC176 by disk diffusion method in presence of beta-lactamase inhibitor clavulanic acid
# Klebsiella pneumoniae [29] = assay: Antimicrobial activity against CMY-2,CTX-M-14,TEM-2-like beta-lactamase producing Klebsiella pneumoniae isolate CUMCK2 by disk diffusion method
# Escherichia coli [30] = assay: Antimicrobial activity against CTX-M-14, TEM-1-like beta-lactamase producing Escherichia coli isolate CUMC248 by disk diffusion method in presence of beta-lactamase inhibitor clavulanic acid
# Escherichia coli [31] = assay: Antimicrobial activity against CTX-M-14, TEM-1 beta-lactamase producing Escherichia coli isolate CUMC174 by disk diffusion method in presence of beta-lactamase inhibitor clavulanic acid
# Escherichia coli [32] = assay: Antimicrobial activity against CTX-M-14, TEM-1-like beta-lactamase producing Escherichia coli isolate CUMC241 by disk diffusion method in presence of beta-lactamase inhibitor clavulanic acid
# Klebsiella pneumoniae [33] = assay: Antimicrobial activity against CMY-2,CTX-M-14,TEM-2-like beta-lactamase producing Klebsiella pneumoniae isolate CUMCK2 by disk diffusion method in presence of beta-lactamase inhibitor clavulanic acid
# Escherichia coli [34] = assay: Antimicrobial activity against CMY-2,CTX-M-14,TEM-2-like beta-lactamase producing Escherichia coli isolate CUMC215 by disk diffusion method in presence of beta-lactamase inhibitor clavulanic acid
# Escherichia coli [35] = assay: Antimicrobial activity against CMY-2 beta-lactamase producing Escherichia coli isolate CUMC225 by disk diffusion method
# Escherichia coli [36] = assay: Antimicrobial activity against CTX-M-15,OXA-30 beta-lactamase producing Escherichia coli isolate CUMC245 by disk diffusion method in presence of beta-lactamase inhibitor clavulanic acid
# Klebsiella pneumoniae [37] = assay: Antimicrobial activity against SHV-12-like, SHV-1-like beta-lactamase producing Klebsiella pneumoniae isolate CUMCK9 by disk diffusion method
# Escherichia coli [38] = assay: Antimicrobial activity against CMY-2 beta-lactamase producing Escherichia coli isolate CUMC223 by disk diffusion method in presence of beta-lactamase inhibitor clavulanic acid
# Escherichia coli [39] = assay: Antimicrobial activity against CTX-M-14, TEM-1-like beta-lactamase producing Escherichia coli isolate CUMC176 by disk diffusion method
# Escherichia coli [40] = assay: Antimicrobial activity against CTX-M-14, TEM-1-like beta-lactamase producing Escherichia coli isolate CUMC241 by disk diffusion method
# Escherichia coli [41] = assay: Antimicrobial activity against CMY-2,TEM-2-like beta-lactamase producing Escherichia coli isolate CUMC224 by disk diffusion method in presence of beta-lactamase inhibitor clavulanic acid
# Escherichia coli [42] = assay: Antimicrobial activity against CMY-2 beta-lactamase producing Escherichia coli isolate CUMC214 by disk diffusion method
# Escherichia coli [43] = assay: Antimicrobial activity against CMY-2 beta-lactamase producing Escherichia coli isolate CUMC223 by disk diffusion method
# Escherichia coli [44] = assay: Antimicrobial activity against CTX-M-14, TEM-1-like beta-lactamase producing Escherichia coli isolate CUMC248 by disk diffusion method
smiles,measurement,setting,value
CC(C)(O/N=C(\C(=O)N[C@@H]1C(=O)N2C(C(=O)[O-])=C(C[n+]3ccccc3)CS[C@H]12)c1csc(N)n1)C(=O)O [CEFTAZIDIME],inhibition zone (IZ),Escherichia coli [1],31 mm
same,inhibition zone (IZ),Escherichia coli [2],29 mm
same,inhibition zone (IZ),Escherichia coli [3],27 mm
same,inhibition zone (IZ),Escherichia coli [4],28 mm
same,inhibition zone (IZ),Escherichia coli [5],14 mm
same,inhibition zone (IZ),Escherichia coli [6],13 mm
same,inhibition zone (IZ),Klebsiella pneumoniae [7],26 mm
same,inhibition zone (IZ),Escherichia coli [8],12 mm
same,inhibition zone (IZ),Escherichia coli [9],30 mm
same,inhibition zone (IZ),Escherichia coli [10],31 mm
same,inhibition zone (IZ),Escherichia coli [11],32 mm
same,inhibition zone (IZ),Escherichia coli [12],7 mm
same,inhibition zone (IZ),Escherichia coli [13],8 mm
same,inhibition zone (IZ),Escherichia coli [14],11 mm
same,inhibition zone (IZ),Escherichia coli [15],12 mm
same,inhibition zone (IZ),Escherichia coli [16],7 mm
same,inhibition zone (IZ),Escherichia coli [17],6 mm
same,inhibition zone (IZ),Escherichia coli [18],8 mm
same,inhibition zone (IZ),Escherichia coli [19],26 mm
same,inhibition zone (IZ),Escherichia coli [20],6 mm
same,inhibition zone (IZ),Escherichia coli [21],28 mm
same,inhibition zone (IZ),Escherichia coli [22],30 mm
same,inhibition zone (IZ),Escherichia coli [23],27 mm
same,inhibition zone (IZ),Escherichia coli [24],16 mm
same,inhibition zone (IZ),Escherichia coli [25],29 mm
same,inhibition zone (IZ),Escherichia coli [26],29 mm
same,inhibition zone (IZ),Escherichia coli [27],13 mm
same,inhibition zone (IZ),Escherichia coli [28],33 mm
same,inhibition zone (IZ),Klebsiella pneumoniae [29],8 mm
same,inhibition zone (IZ),Escherichia coli [30],29 mm
same,inhibition zone (IZ),Escherichia coli [31],30 mm
same,inhibition zone (IZ),Escherichia coli [32],32 mm
same,inhibition zone (IZ),Klebsiella pneumoniae [33],12 mm
same,inhibition zone (IZ),Escherichia coli [34],7 mm
same,inhibition zone (IZ),Escherichia coli [35],6 mm
same,inhibition zone (IZ),Escherichia coli [36],29 mm
same,inhibition zone (IZ),Klebsiella pneumoniae [37],6 mm
same,inhibition zone (IZ),Escherichia coli [38],13 mm
same,inhibition zone (IZ),Escherichia coli [39],30 mm
same,inhibition zone (IZ),Escherichia coli [40],28 mm
same,inhibition zone (IZ),Escherichia coli [41],13 mm
same,inhibition zone (IZ),Escherichia coli [42],8 mm
same,inhibition zone (IZ),Escherichia coli [43],6 mm
same,inhibition zone (IZ),Escherichia coli [44],25 mm
CO/N=C(\C(=O)N[C@@H]1C(=O)N2C(C(=O)O)=C(COC(C)=O)CS[C@H]12)c1csc(N)n1 [CEFOTAXIME],inhibition zone (IZ),Escherichia coli [1],18 mm
same,inhibition zone (IZ),Escherichia coli [2],32 mm
same,inhibition zone (IZ),Escherichia coli [3],16 mm
same,inhibition zone (IZ),Escherichia coli [4],15 mm
same,inhibition zone (IZ),Escherichia coli [5],13 mm
same,inhibition zone (IZ),Escherichia coli [6],11 mm
same,inhibition zone (IZ),Klebsiella pneumoniae [7],32 mm
same,inhibition zone (IZ),Escherichia coli [8],12 mm
same,inhibition zone (IZ),Escherichia coli [9],30 mm
same,inhibition zone (IZ),Escherichia coli [10],30 mm
same,inhibition zone (IZ),Escherichia coli [11],32 mm
same,inhibition zone (IZ),Escherichia coli [12],11 mm
same,inhibition zone (IZ),Escherichia coli [13],12 mm
same,inhibition zone (IZ),Escherichia coli [14],11 mm
same,inhibition zone (IZ),Escherichia coli [15],10 mm
same,inhibition zone (IZ),Escherichia coli [16],15 mm
same,inhibition zone (IZ),Escherichia coli [17],13 mm
same,inhibition zone (IZ),Escherichia coli [18],6 mm
same,inhibition zone (IZ),Escherichia coli [19],14 mm
same,inhibition zone (IZ),Escherichia coli [20],7 mm
same,inhibition zone (IZ),Escherichia coli [21],17 mm
same,inhibition zone (IZ),Escherichia coli [22],30 mm
same,inhibition zone (IZ),Escherichia coli [23],15 mm
same,inhibition zone (IZ),Escherichia coli [24],6 mm
same,inhibition zone (IZ),Escherichia coli [25],17 mm
same,inhibition zone (IZ),Escherichia coli [26],29 mm
same,inhibition zone (IZ),Escherichia coli [27],12 mm
same,inhibition zone (IZ),Escherichia coli [28],31 mm
same,inhibition zone (IZ),Klebsiella pneumoniae [29],11 mm
same,inhibition zone (IZ),Escherichia coli [30],28 mm
same,inhibition zone (IZ),Escherichia coli [31],30 mm
same,inhibition zone (IZ),Escherichia coli [32],30 mm
same,inhibition zone (IZ),Klebsiella pneumoniae [33],16 mm
same,inhibition zone (IZ),Escherichia coli [34],8 mm
same,inhibition zone (IZ),Escherichia coli [35],11 mm
same,inhibition zone (IZ),Escherichia coli [36],30 mm
same,inhibition zone (IZ),Klebsiella pneumoniae [37],18 mm
same,inhibition zone (IZ),Escherichia coli [38],13 mm
same,inhibition zone (IZ),Escherichia coli [39],17 mm
same,inhibition zone (IZ),Escherichia coli [40],13 mm
same,inhibition zone (IZ),Escherichia coli [41],12 mm
same,inhibition zone (IZ),Escherichia coli [42],13 mm
same,inhibition zone (IZ),Escherichia coli [43],13 mm
same,inhibition zone (IZ),Escherichia coli [44],12 mm
